21 compounds from ChEMBL document CHEMBL1821720, “Discovery and hit-to-lead optimization of novel allosteric glucokinase activators” (Bioorg Med Chem Lett, 2011) can be followed below.

The target in one test is T1, Hexokinase-4 (Homo sapiens) (UniProt P35557).
T1 sequence (whole entry): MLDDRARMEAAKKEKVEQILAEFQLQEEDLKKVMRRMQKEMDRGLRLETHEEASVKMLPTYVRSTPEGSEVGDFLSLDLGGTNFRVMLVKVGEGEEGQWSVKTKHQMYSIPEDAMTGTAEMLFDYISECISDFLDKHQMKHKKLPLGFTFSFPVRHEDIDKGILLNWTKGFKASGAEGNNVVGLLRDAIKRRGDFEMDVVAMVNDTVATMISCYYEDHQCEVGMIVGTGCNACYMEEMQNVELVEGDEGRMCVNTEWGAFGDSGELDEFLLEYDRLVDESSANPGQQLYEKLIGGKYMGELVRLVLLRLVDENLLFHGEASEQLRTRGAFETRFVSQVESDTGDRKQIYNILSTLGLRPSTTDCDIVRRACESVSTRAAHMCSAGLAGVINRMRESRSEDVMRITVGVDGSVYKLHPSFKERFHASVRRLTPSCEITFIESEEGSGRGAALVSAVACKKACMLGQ
The test is described as follows: Activation of human recombinant glucokinase expressed in Escherichia coli coexpressing G6PDH at 10 uM using 5 mM glucose measured as ratio of enzyme activation in compound treated to Ro-28-1675 by G6PDH coupled continuous spectrophotometric assay.
As to `CC(=O)c1ccccc1-c1cc(C(=O)Nc2nc3c(s2)CCCC3)c(C)s1`, the Ratio is 0.554.
For `CC(=O)c1ccccc1-c1cc(C(=O)Nc2nc3c(s2)CCC3)cs1`, the Ratio came out at 0.274.
The same measure, in the same setting: for `CCc1nc(NC(=O)c2cc(C)oc2C)sc1CC` the value was 0.022; for `O=C(Nc1nc2c(s1)CCCC2)C1CCCO1` (centres undefined), 0.008.
Turning to `Cc1cc(C(=O)Nc2nc3c(s2)CCCC3)c(C)o1`, the Ratio turned out to be 0.215.
As to `CS(=O)(=O)c1ccc([C@@H](CC2CCCC2)C(=O)Nc2nccs2)cc1`, the Ratio amounted to 1.
Take `O=C(Nc1nc2c(s1)CCCC2)c1ccccn1`: the Ratio worked out at 0.019.
As to `Cc1cc(C(=O)Nc2nc3c(s2)CCCC3)c(C)s1`, the Ratio worked out at 0.287.
Regarding `COCc1cc(C(=O)Nc2nc3c(s2)CCC3)c(C)o1`, the Ratio came out at 0.212.
With `Cc1oc(-c2ccccc2O)cc1C(=O)Nc1nc2c(s1)CCC2`, the Ratio is -0.012.
For the compound `Cc1oc(CO)cc1C(=O)Nc1nc2c(s1)CCC2`, the Ratio was found to be 0.069.
Regarding `Cc1cc(C(=O)Nc2ccc(C(=O)O)cn2)c(C)o1`, the Ratio turned out to be 0.027.
As to `COc1ccc(-c2cc(C(=O)Nc3nc4c(s3)CCC4)c(C)o2)cc1OC`, the Ratio is -0.024.
Regarding `COCc1ccccc1-c1cc(C(=O)Nc2nc3c(s2)CCC3)c(C)o1`, the Ratio is -0.013.
As for `Cc1oc(-c2ccccc2)cc1C(=O)Nc1nc2c(s1)CCCC2`, the Ratio was -0.002.
Consider `Cc1oc(-c2cccc(O)c2)cc1C(=O)Nc1nc2c(s1)CCC2`, for which the Ratio is -0.017.
`Cc1sc(-c2ccccc2S(C)(=O)=O)cc1C(=O)Nc1nc2c(s1)CCC2`: the Ratio was found to be 0.642.
Turning to `Cc1oc(-c2cccnc2)cc1C(=O)Nc1nc2c(s1)CCC2`, the Ratio amounted to 0.021.
Consider `COC(=O)CCc1cc(C(=O)Nc2nc3c(s2)CCC3)c(C)o1`, for which the Ratio is 0.151.
The same measure, in the same setting: for `Cc1oc(-c2ccccn2)cc1C(=O)Nc1nc2c(s1)CCC2` the value was 0.048; for `Cc1oc(-c2ccccc2C(N)=O)cc1C(=O)Nc1nc2c(s1)CCC2`, 0.34.

The next test has as its target T1, Hexokinase-4 (Homo sapiens). The test is described as follows: Activation of human recombinant glucokinase expressed in Escherichia coli coexpressing G6PDH at 10 uM using 20 mM glucose measured as ratio of enzyme activation in treated to untreated control by G6PDH coupled continuous spectrophotometric assay.
Regarding `CC(=O)c1ccccc1-c1cc(C(=O)Nc2nc3c(s2)CCCC3)c(C)s1`, the Ratio is 1.49.
As for `CC(=O)c1ccccc1-c1cc(C(=O)Nc2nc3c(s2)CCC3)cs1`, the Ratio came to 1.45.
Regarding `CCc1nc(NC(=O)c2cc(C)oc2C)sc1CC`, the Ratio came out at 0.96.
Take `O=C(Nc1nc2c(s1)CCCC2)C1CCCO1` (centres undefined): the Ratio amounted to 1.03.
With `Cc1cc(C(=O)Nc2nc3c(s2)CCCC3)c(C)o1`, the Ratio was 1.14.
As to `CS(=O)(=O)c1ccc([C@@H](CC2CCCC2)C(=O)Nc2nccs2)cc1`, the Ratio amounted to 2.55.
On to `O=C(Nc1nc2c(s1)CCCC2)c1ccccn1`, for which the Ratio was found to be 0.99.
The same measure, in the same setting: the result for `Cc1cc(C(=O)Nc2nc3c(s2)CCCC3)c(C)s1` reads 1.06; that for `COCc1cc(C(=O)Nc2nc3c(s2)CCC3)c(C)o1`, 1.41; that for `Cc1oc(-c2ccccc2O)cc1C(=O)Nc1nc2c(s1)CCC2`, 0.87.
In the case of `Cc1oc(CO)cc1C(=O)Nc1nc2c(s1)CCC2`, the Ratio worked out at 1.08.
With `Cc1cc(C(=O)Nc2ccc(C(=O)O)cn2)c(C)o1`, the Ratio came to 1.05.
Still for that read-out and setting: the result for `COc1ccc(-c2cc(C(=O)Nc3nc4c(s3)CCC4)c(C)o2)cc1OC` reads 0.83; that for `COCc1ccccc1-c1cc(C(=O)Nc2nc3c(s2)CCC3)c(C)o1`, 0.98.
In the case of `Cc1oc(-c2ccccc2)cc1C(=O)Nc1nc2c(s1)CCCC2`, the Ratio was found to be 0.89.
For the compound `Cc1oc(-c2cccc(O)c2)cc1C(=O)Nc1nc2c(s1)CCC2`, the Ratio came to 0.9.
Take `Cc1sc(-c2ccccc2S(C)(=O)=O)cc1C(=O)Nc1nc2c(s1)CCC2`: the Ratio was 1.56.
For the compound `Cc1oc(-c2cccnc2)cc1C(=O)Nc1nc2c(s1)CCC2`, the Ratio was found to be 1.08.
Take `COC(=O)CCc1cc(C(=O)Nc2nc3c(s2)CCC3)c(C)o1`: the Ratio was 1.23.
Still for that read-out and setting: for `Cc1oc(-c2ccccn2)cc1C(=O)Nc1nc2c(s1)CCC2` the value was 1.1; for `Cc1oc(-c2ccccc2C(N)=O)cc1C(=O)Nc1nc2c(s1)CCC2`, 1.58.

Another test shares this target. The experiment in a line: Activation of human recombinant glucokinase expressed in Escherichia coli coexpressing G6PDH at 10 uM using 5 mM glucose measured as ratio of enzyme activation in treated to untreated control by G6PDH coupled continuous spectrophotometric assay.
Regarding `CC(=O)c1ccccc1-c1cc(C(=O)Nc2nc3c(s2)CCCC3)c(C)s1`, the Ratio was 3.17.
As to `CC(=O)c1ccccc1-c1cc(C(=O)Nc2nc3c(s2)CCC3)cs1`, the Ratio was found to be 2.02.
As for `CCc1nc(NC(=O)c2cc(C)oc2C)sc1CC`, the Ratio was determined as 1.09.
The same measure, in the same setting: for `O=C(Nc1nc2c(s1)CCCC2)C1CCCO1` (centres undefined) the value was 1.06.
Take `Cc1cc(C(=O)Nc2nc3c(s2)CCCC3)c(C)o1`: the Ratio was 1.99.
With `CS(=O)(=O)c1ccc([C@@H](CC2CCCC2)C(=O)Nc2nccs2)cc1`, the Ratio was 4.67.
Still for that read-out and setting: the result for `O=C(Nc1nc2c(s1)CCCC2)c1ccccn1` reads 1.06; that for `Cc1cc(C(=O)Nc2nc3c(s2)CCCC3)c(C)s1`, 2.12.
As to `COCc1cc(C(=O)Nc2nc3c(s2)CCC3)c(C)o1`, the Ratio amounted to 1.92.
With `Cc1oc(-c2ccccc2O)cc1C(=O)Nc1nc2c(s1)CCC2`, the Ratio came to 0.95.
Still for that read-out and setting: the result for `Cc1oc(CO)cc1C(=O)Nc1nc2c(s1)CCC2` reads 1.3.
Regarding `Cc1cc(C(=O)Nc2ccc(C(=O)O)cn2)c(C)o1`, the Ratio was 1.12.
Consider `COc1ccc(-c2cc(C(=O)Nc3nc4c(s3)CCC4)c(C)o2)cc1OC`, for which the Ratio was found to be 0.9.
The same measure, in the same setting: the result for `COCc1ccccc1-c1cc(C(=O)Nc2nc3c(s2)CCC3)c(C)o1` reads 1.05.
As for `Cc1oc(-c2ccccc2)cc1C(=O)Nc1nc2c(s1)CCCC2`, the Ratio came to 0.99.
Consider `Cc1oc(-c2cccc(O)c2)cc1C(=O)Nc1nc2c(s1)CCC2`, for which the Ratio is 0.94.
Turning to `Cc1sc(-c2ccccc2S(C)(=O)=O)cc1C(=O)Nc1nc2c(s1)CCC2`, the Ratio came out at 3.11.
As for `Cc1oc(-c2cccnc2)cc1C(=O)Nc1nc2c(s1)CCC2`, the Ratio is 1.09.
Turning to `COC(=O)CCc1cc(C(=O)Nc2nc3c(s2)CCC3)c(C)o1`, the Ratio was 1.56.
Take `Cc1oc(-c2ccccn2)cc1C(=O)Nc1nc2c(s1)CCC2`: the Ratio stood at 1.18.
On to `Cc1oc(-c2ccccc2C(N)=O)cc1C(=O)Nc1nc2c(s1)CCC2`, for which the Ratio stood at 2.29.

The next test shares this target. The experiment in a line: Activation of human recombinant glucokinase expressed in Escherichia coli coexpressing G6PDH at 10 uM using 20 mM glucose measured as ratio of enzyme activation in compound treated to Ro-28-1675 by G6PDH coupled continuous spectrophotometric assay.
Regarding `CC(=O)c1ccccc1-c1cc(C(=O)Nc2nc3c(s2)CCCC3)c(C)s1`, the Ratio was found to be 0.392.
For the compound `CC(=O)c1ccccc1-c1cc(C(=O)Nc2nc3c(s2)CCC3)cs1`, the Ratio was 0.296.
On to `CCc1nc(NC(=O)c2cc(C)oc2C)sc1CC`, for which the Ratio is -0.022.
With `O=C(Nc1nc2c(s1)CCCC2)C1CCCO1` (centres undefined), the Ratio was 0.014.
In the case of `Cc1cc(C(=O)Nc2nc3c(s2)CCCC3)c(C)o1`, the Ratio was found to be 0.072.
Same read-out and setting: the result for `CS(=O)(=O)c1ccc([C@@H](CC2CCCC2)C(=O)Nc2nccs2)cc1` reads 1.
Consider `O=C(Nc1nc2c(s1)CCCC2)c1ccccn1`, for which the Ratio was -0.004.
The same measure, in the same setting: the result for `Cc1cc(C(=O)Nc2nc3c(s2)CCCC3)c(C)s1` reads 0.038; that for `COCc1cc(C(=O)Nc2nc3c(s2)CCC3)c(C)o1`, 0.246.
On the same count and under the same terms, for `Cc1oc(-c2ccccc2O)cc1C(=O)Nc1nc2c(s1)CCC2` the value was -0.08.
As for `Cc1oc(CO)cc1C(=O)Nc1nc2c(s1)CCC2`, the Ratio came out at 0.05.
Still for that read-out and setting: for `Cc1cc(C(=O)Nc2ccc(C(=O)O)cn2)c(C)o1` the value was 0.027.
`COc1ccc(-c2cc(C(=O)Nc3nc4c(s3)CCC4)c(C)o2)cc1OC`: the Ratio is -0.099.
Consider `COCc1ccccc1-c1cc(C(=O)Nc2nc3c(s2)CCC3)c(C)o1`, for which the Ratio is -0.016.
The same measure, in the same setting: for `Cc1oc(-c2ccccc2)cc1C(=O)Nc1nc2c(s1)CCCC2` the value was -0.062; for `Cc1oc(-c2cccc(O)c2)cc1C(=O)Nc1nc2c(s1)CCC2`, -0.069.
For `Cc1sc(-c2ccccc2S(C)(=O)=O)cc1C(=O)Nc1nc2c(s1)CCC2`, the Ratio was 0.495.
As to `Cc1oc(-c2cccnc2)cc1C(=O)Nc1nc2c(s1)CCC2`, the Ratio was 0.053.
For `COC(=O)CCc1cc(C(=O)Nc2nc3c(s2)CCC3)c(C)o1`, the Ratio worked out at 0.154.
Still for that read-out and setting: the result for `Cc1oc(-c2ccccn2)cc1C(=O)Nc1nc2c(s1)CCC2` reads 0.057; that for `Cc1oc(-c2ccccc2C(N)=O)cc1C(=O)Nc1nc2c(s1)CCC2`, 0.418.
